# Experimental data published in patent publication US20190111059A1, “COMPOSITIONS AND METHODS FOR TREATING AUTISM SPECTRUM DISORDER” (Marinus Pharmaceuticals, Inc., priority 2017, published 2019).
# Counter-ions that a name gives are not always drawn.
# Tests used:
# [1] = system: children with non-syndromic autism spectrum disorder (ASD) and language impairment; assay: Randomized placebo-controlled trial: Aberrant Behavior Checklist (ABC), parent questionnaire; assay type: in vivo, human; settings: lower = less problems; for ABC Hyperactivity, estimated effect / ABC Inappropriate speech, estimated effect / ABC Irritability, estimated effect / ABC Lethargy, estimated effect / ABC Stereotyped behavior, estimated effect / ABC Total Score, estimated effect: vs placebo, mixed-model regression, calcium salt
# Excerpt: The Aberrant Behavior Checklist (“ABC”) is a 58-item questionnaire that measures disruptive behaviors, including Irritability (15 items, range 0-45); Social Withdrawal (16 items, range 0-48); Stereotypy (7 items, range 0-21); Hyperactivity (16 items, range 0-48) and Inappropriate Speech (4 items, range 0-12). Each item is rated 0 to 3 with higher scores indicating greater severity. Multiple ASD clinical trials have used it and it has convergent and divergent validity. […] This two-arm double-blind randomized placebo-controlled parallel study with a 1:1 allocation was performed at Arkansas Children's Research Institute (Little Rock, Ark., USA) from 4 Jun. 2012 to 22 Nov. 2013. Parent and teacher questionnaires were requested at baseline and 6 and 12 weeks after starting treatment. Parents were asked to deliver baseline questionnaires to teachers or therapists. After the first visit, questionnaires were mailed to the parents and teachers at least 1 week prior to the target date of completion. Parents were asked to bring the completed teacher and parent 12-week questionnaires to the final assessment. Other questionnaires were returned in a preaddressed postage-paid envelope. The target dose of the intervention (INN: DL folinic acid calcium salt; USAN: leucovorin calcium) was 2 mg kg^−1 per day (maximum 50 mg per day) in two equally divided doses with half of the target dose given during the first 2 weeks. Dye-free, milk-product-free, vegetarian capsules were provided in three strengths (5, 10 and 25 mg) by Lee Silsby Compounding Pharmacy (Cleveland Heights, Ohio, USA). Certificate of analysis was provided for each capsule strength by an independent analytical service (Eagle Analytical Services, Houston, Tex., USA) for each batch of capsules produced. In all cases, potency was at least 99%. Secondary outcomes. Secondary outcome measures included the Ohio Autism Clinical Impression Scale (OACIS), Vineland Adaptive Behavior Scale 2nd Edition (VABS) Survey Interview Form and several questionnaires. Parents and teachers were asked to complete the Aberrant Behavior Checklist (ABC), Social Responsiveness Scale (SRS) and Behavioral Assessment System for Children 2nd Edition (BASC). Only parents were asked to complete the Autism Impact Measure (AIM) and Autism Symptoms Questionnaire (ASQ). Secondary outcome measures were analyzed using the mixed-model regression. Because of the large number of secondary outcomes, correction for multiple comparisons was conducted using the false discovery rate.
# [2] = system: children with non-syndromic autism spectrum disorder (ASD) and language impairment; assay: Randomized placebo-controlled trial: Autism Impact Measure (AIM); assay type: in vivo, human; settings: lower = less impact
# Experimental: The Autism Impact Measure (“AIM”) is a 45-item parent-reported measure of the frequency and impact of core ASD symptoms during the past 2 weeks using two 5-point scales of increasing severity ranging from 1 to 5.51 The Frequency and Impact scores range 45-225. This two-arm double-blind randomized placebo-controlled parallel study with a 1:1 allocation was performed at Arkansas Children's Research Institute (Little Rock, Ark., USA) from 4 Jun. 2012 to 22 Nov. 2013. Parent and teacher questionnaires were requested at baseline and 6 and 12 weeks after starting treatment. Parents were asked to deliver baseline questionnaires to teachers or therapists. After the first visit, questionnaires were mailed to the parents and teachers at least 1 week prior to the target date of completion. Parents were asked to bring the completed teacher and parent 12-week questionnaires to the final assessment. Other questionnaires were returned in a preaddressed postage-paid envelope. The target dose of the intervention (INN: DL folinic acid calcium salt; USAN: leucovorin calcium) was 2 mg kg^−1 per day (maximum 50 mg per day) in two equally divided doses with half of the target dose given during the first 2 weeks. Dye-free, milk-product-free, vegetarian capsules were provided in three strengths (5, 10 and 25 mg) by Lee Silsby Compounding Pharmacy (Cleveland Heights, Ohio, USA). Certificate of analysis was provided for each capsule strength by an independent analytical service (Eagle Analytical Services, Houston, Tex., USA) for each batch of capsules produced. In all cases, potency was at least 99%. Secondary outcomes. Secondary outcome measures included the Ohio Autism Clinical Impression Scale (OACIS), Vineland Adaptive Behavior Scale 2nd Edition (VABS) Survey Interview Form and several questionnaires. Parents and teachers were asked to complete the Aberrant Behavior Checklist (ABC), Social Responsiveness Scale (SRS) and Behavioral Assessment System for Children 2nd Edition (BASC). Only parents were asked to complete the Autism Impact Measure (AIM) and Autism Symptoms Questionnaire (ASQ). Secondary outcome measures were analyzed using the mixed-model regression. Because of the large number of secondary outcomes, correction for multiple comparisons was conducted using the false discovery rate.
# [3] = vs placebo, mixed-model regression
smiles,measurement,setting,value
"Nc1nc2c(c(=O)[nH]1)N(C=O)C(CNc1ccc(C(=O)N[C@@H](CCC(=O)O)C(=O)O)cc1)CN2 (mixture of isomers) [Folinic acid, DL folinic acid calcium salt]","ABC Inappropriate speech, 12-week assessment mean","[1]; 2 mg kg^−1 per day, 12 weeks, baseline 5.2",4.0 Raw Score
same,"ABC Stereotyped behavior, 12-week assessment mean","[1]; 2 mg kg^−1 per day, 12 weeks, baseline 6.1",3.7 Raw Score
same,"ABC Lethargy, 12-week assessment mean","[1]; 2 mg kg^−1 per day, 12 weeks, baseline 13.1",9.7 Raw Score
same,"ABC Irritability, 12-week assessment mean","[1]; 2 mg kg^−1 per day, 12 weeks, baseline 13.4",9.1 Raw Score
same,"ABC Hyperactivity, 12-week assessment mean","[1]; 2 mg kg^−1 per day, 12 weeks, baseline 25.0",22.1 Raw Score
same,"ABC Total Score, 12-week assessment mean","[1]; 2 mg kg^−1 per day, 12 weeks, baseline 62.7",48.5 Raw Score
same,"ABC Hyperactivity, estimated effect",[1],−1.8 Raw Score
same,"ABC Inappropriate speech, estimated effect",[1],−1.7 Raw Score
same,"ABC Irritability, estimated effect",[1],−1.2 Raw Score
same,"ABC Lethargy, estimated effect",[1],−1.4 Raw Score
same,"ABC Stereotyped behavior, estimated effect",[1],−0.9 Raw Score
same,"ABC Total Score, estimated effect",[1],−4.7 Raw Score
same,"ABC Hyperactivity, estimated effect",[1]; listed as folinic acid,significantly improved
same,"ABC Inappropriate speech, estimated effect",[1]; listed as folinic acid,significantly improved
same,"ABC Irritability, estimated effect",[1]; listed as folinic acid,significantly improved
same,"ABC Lethargy, estimated effect",[1]; listed as folinic acid,significantly improved
same,"ABC Stereotyped behavior, estimated effect",[1]; listed as folinic acid,significantly improved
same,"ABC Total Score, estimated effect",[1]; listed as folinic acid,significantly improved
same,"AIM Impact, 12-week assessment mean","[2]; 2 mg kg^−1 per day, 12 weeks, baseline 105",87 Raw Scores
same,"AIM Frequency, 12-week assessment mean","[2]; 2 mg kg^−1 per day, 12 weeks, baseline 135",114 Raw Scores
same,"AIM Frequency, estimated effect",[2]; [3],−2.2 Raw Scores
same,"AIM Impact, estimated effect",[2]; [3],3.4 Raw Scores
